Measured values: patent publication US11340226B2, “Squalene epoxidase in the diagnosis and treatment of non-alcoholic fatty liver diseases” (priority 2018, dated 2022)

Legend:
[1] = system: Sqle tg mice injected with DEN and fed with a HFHC diet; format: in vivo
Description: Sqle tg mice injected with DEN (10 days of age) and fed with a HFHC diet (6 weeks of age). At 20 weeks of age, the mice will be randomized into two group and treated with either vehicle or Terbinafine (80 mg/kg/d, oral gavage). After 8 weeks terbinafine treatment, mice will be sacrificed to examine the therapeutic effect of Terbinafine. […]
The serum cholesterol, TG, ALT and AST level were detected by the Catalyst One Chemistry Analyzer according to the manufacturer's instructions (IDEXX, USA). Thirty microliters of serum from wild-type or Sqle tg mice were diluted to 90 μl by physiological saline buffer. The diluted samples and specific slides (cholesterol, ALT and AST) were then loaded into the analyzer for automatic analysis. […]

[2] = system: HKCI2; assay: Colony formation assay; format: cell-based, human; conditions: 25 μM to 50 μM
Description: (§1) 2 NAFLD-HCC cell lines (HKCI2, HKCI10) and one liver cancer cell line HepG2 were used in this study. Cell lines were maintained in RPMI-1640 or DMEM medium (Gibco BRL, Rockville, Md.) with 10% fetal bovine serum.
(§2) For cell colony formation assay, liver cancer cells (1000/well) were plated in 6-well plates. Different dose of Terbinafine were added to these cells at the second day. After culturing for 5-7 days, cells were fixed with 70% ethanol and stained with 0.5% crystal violet solution. Colonies with more than 50 cells per colony were counted. All experiments were conducted three times in triplicates.

[3] = system: HepG2; assay: Colony formation assay; format: cell-based, human; conditions: 25 μM to 50 μM
Description: as §1, §2

[4] = system: HepG2 xenografts; assay: Subcutaneous HepG2 xenograft nude mice model; format: in vivo, Balb/c nude mice
Description: A xenograft human liver cancer mouse model was established using HepG2 cells. HepG2 cells (1×10^7 cells in 0.1 ml PBS) were injected subcutaneously into the left dorsal flank of 4-week-old male Balb/c nude mice. Once the subcutaneous tumors reached about 100 mm^3, these mice were divided into vehicle group (PBS, p.o.) and terbinafine group (80 mg/kg, p.o.) randomly. Tumor diameter was measured every days for 10 days. For survival analysis, tumor diameter was measured every two days for 40 days. Tumor volume (mm^3) was estimated by measuring the longest and shortest diameter of the tumor and calculating as follows: volume=(shortest diameter)^2×(longest diameter)×0.5. Care of animals and all experimental procedures were approved by the Animal Ethics Committee of the Chinese University of Hong Kong. After more than 2 weeks, the mice were sacrificed, and the tumors were weighed and fixed in formalin for histological analysis. […]
(§3) 10^6 cells or 2 mg tissues were harvested, and cholesterol/cholesteryl ester levels were detected by Cholesterol/Cholesteryl Ester Quantification kit (ab65359, Abcam) according to manufacturer's instructions. All experiments were conducted three times in triplicates. Results were shown as the means±SEM.

[5] = system: HKCI2; assay: Cell growth, cell viability (MTS) assay; format: cell-based, human; conditions: 25 μM to 50 μM
Description: as §1
(§4) Cell viability was determined by the 3-(4,5-dimethylthiazol-2-yl)-5-(3-carboxyme-thoxyphenyl)-2-(4-sulfophenyl)-2H-tetrazolium (MTS) assay (Promega, Madison, Wis.).

[6] = system: HepG2; assay: Cell growth, cell viability (MTS) assay; format: cell-based, human; conditions: 25 μM to 50 μM
Description: as §1, §4

[7] = system: HKCI10; assay: Colony formation assay; format: cell-based; conditions: 25 μM to 50 μM
Description: as §1, §2

[8] = system: HCC cell lines; assay: Cholesterol/cholesteryl ester levels in cells; format: cell-based
Description: as §3

[9] = system: orthotopic HKCI2 xenografts; assay: Orthotopic HKCI2 xenograft (human NAFLD-HCC) nude mice model; format: in vivo, Balb/c nude mice
Description: An orthotopic human NAFLD-HCC mouse model was established using HKCI2 cells. HKCI2 cells (1×10^7 cells in 0.1 ml PBS) were injected subcutaneously into the left dorsal flank of 4-week-old male Balb/c nude mice. Subcutaneous tumors were harvested once they reached about 10 mm^3 and cut into 1.0 mm^3 pieces. One piece of a tumor was implanted into the left liver lobe in a separate group of nude mice (4-week-old). Four weeks after implantation, these mice were divided into vehicle group (PBS, p.o.) and terbinafine group (80 mg/kg, p.o.). Eight weeks post-implantation, the mice were sacrificed and examined. 10^6 cells or 2 mg tissues were harvested, and cholesterol/cholesteryl ester levels were detected by Cholesterol/Cholesteryl Ester Quantification kit (ab65359, Abcam) according to manufacturer's instructions. All experiments were conducted three times in triplicates. Results were shown as the means±SEM.

[10] = system: HKCI10; assay: Cell growth, cell viability (MTS) assay; format: cell-based; conditions: 25 μM to 50 μM
Description: as §1, §4

[11] = system: Sqle tg mice fed with a HFHC diet; assay: NASH development in HFHC-fed Sqle tg mice; format: in vivo
Description: (§5) WT and Sqle Tg mice were fed with normal diet (18% fat, 58% carbohydrate, 24% protein, 0% cholesterol) or high fat high cholesterol (HFHC: 43.7% fat, 36.6% carbohydrate, 19.7% protein, 0.203% cholesterol) diets (Specialty Feeds, Glen Forrest, Wash.) ad libitum for different time point to generate spontaneous NAFLD model and diet-induced NASH model. 2 mg tissues were harvested, and liver cholesterol levels were detected by Cholesterol/Cholesteryl Ester Quantification kit (ab65359, Abcam) according to manufacturer's instructions. All experiments were conducted three times in triplicates. Results were shown as the means±SEM. 100 mg tissues were harvested, and liver triglyceride levels were detected by triglyceride Quantification kit (ab65336, Abcam) according to manufacturer's instructions. All experiments were conducted three times in triplicates. Results were shown as the means±SEM. Sqle tg mice and their wild-type littermates (WT) were fed a high fat high cholesterol diet at the age of 6 weeks. At 17 weeks of age (Sqle tg mice) or 24 weeks of age (WT mice), the mice will be randomized into two group and treated with either vehicle or Terbinafine (80 mg/kg/d, oral gavage). After 8 (WT mice) or 9 weeks (Sqle tg mice) terbinafine treatment, mice will be sacrificed to examine the therapeutic effect of Terbinafine. Assessment of NAFLD: Liver histology were evaluated at sacrifice using H&E staining. Assessment of inflammation: Liver damage were determined using serum ALT and AST. PCR and cytokine arrays were used to evaluate expression of pro-inflammatory cytokines. Assessment of metabolic syndrome: Insulin tolerance tests and glucose tolerance tests will be determined as described above. 20 mg tissues were harvested, and liver […] Quantification kit (ab65341, Abcam) according to manufacturer's instructions. All experiments were conducted three times in triplicates. Results were shown as the means±SEM. The serum cholesterol, TG, ALT and AST level were detected by the Catalyst One Chemistry Analyzer according to the manufacturer's instructions (IDEXX, USA). Thirty microliters of serum from wild-type or Sqle tg mice were diluted to 90 μl by physiological saline buffer. The diluted samples and specific slides (cholesterol, ALT and AST) were then loaded into the analyzer for automatic analysis. For the glucose tolerance test, mice were fasted overnight by transferring mice to clean cages with no food or feces in upper or bottom of cage. Mice were then injected intraperitoneally with 0.75 U insulin per kg body weight (ITT) or 1 g glucose per kg body weight (GTT) in water. Blood from the tail vein was obtained before the injection and at 30, 60 and 90 min after the injection for determination of blood glucose using Glucose Meter.

[12] = system: SQLE and PCNA expression; assay: Western blot of SQLE and PCNA expression in treated cells; format: cell-based
[13] = system: HFHC-fed WT mice; assay: HFHC-induced NAFLD in WT mice; format: in vivo
Excerpt: as §5, with “model.” for “model. 2 mg tissues were harvested, and liver cholesterol levels were detected by Cholesterol/Cholesteryl Ester Quantification kit (ab65359, Abcam) according to manufacturer's instructions. All experiments were conducted three times in triplicates. Results were shown as the means±SEM. 100 mg tissues were harvested, and liver triglyceride levels were detected by triglyceride Quantification kit (ab65336, Abcam) according to manufacturer's instructions. All experiments were conducted three times in triplicates. Results were shown as the means±SEM.”, “analysis.” for “analysis. For the glucose tolerance test, mice were fasted overnight by transferring mice to clean cages with no food or feces in upper or bottom of cage. Mice were then injected intraperitoneally with 0.75 U insulin per kg body weight (ITT) or 1 g glucose per kg body weight (GTT) in water. Blood from the tail vein was obtained before the injection and at 30, 60 and 90 min after the injection for determination of blood glucose using Glucose Meter.”

[14] = DEN-injected HFHC-fed Sqle tg mice
[15] = livers of Sqle tg mice, western blot
[16] = subcutaneous HepG2 xenografts, 80 mg/kg/d, p.o.
[17] = 80 mg/kg/d oral gavage, 9 weeks
[18] = 80 mg/kg/d oral gavage, 8 weeks

With `CN(C/C=C/C#CC(C)(C)C)Cc1cccc2ccccc12` [terbinafine] as the compound, how does the tumor number ([1]; 80 mg/kg/d oral gavage, 8 weeks, P<0.01) read?
Its tumor number is “significantly reduced”.

And the tumor incidence ([1]; 80 mg/kg/d oral gavage, 8 weeks, vs 8/9 mice in PBS, P<0.05)?
The tumor incidence was 4/9.

And the “NADP^+/NADPH ratio” value [1, 14]?
The value was “reducing”.

And the liver cholesterol levels [1, 14]?
The liver cholesterol levels was “decreased”.

And the liver/body weight ratio [1, 14]?
Its liver/body weight ratio is “decreased”.

And the serum cholesterol levels [1, 14]?
Its serum cholesterol levels is “decreased”.

What about the Dnmt3a protein expression [1, 15] of the same compound?
The Dnmt3a protein expression was “inhibited”.

What about the Pten expression [1, 15] of the same compound?
Its Pten expression is “restored”.

And the Sqle protein expression [1, 15]?
The Sqle protein expression was “inhibited”.

And the “HCC tumorigenesis and cell proliferation (H&E and Ki-67 staining of livers)” value ([1]; vs vehicle)?
The value was “reduction”.

And the “cell lines proliferation by colony formation assay” value [2]?
The value was “markedly suppressed”.

What about the “cell lines proliferation by colony formation assay” value [3] of the same compound?
The value was “markedly suppressed”.

And the “suppression of growth of subcutaneous HepG2 xenografts” value ([4]; 80 mg/kg, p.o., P<0.01)?
The value was 77.8%.

And the “tumor cholesteryl ester levels” value ([4]; HepG2 xenografts)?
Its value is “suppressed”.

And the “tumor free cholesterol levels” value ([4]; HepG2 xenografts)?
Its value is “suppressed”.

And the tumor volume [4, 16]?
Its tumor volume is “significant reductions”.

What about the tumor weight [4, 16] of the same compound?
The tumor weight was “significant reductions”.

And the “overall survival of mice harboring HepG2 xenografts” value ([4]; tumor size 400 mm^3 as cutoff, P<0.01)?
The value was “significantly prolonged”.

What about the “cell lines proliferation by cell growth assay” value [5] of the same compound?
Its value is “markedly suppressed”.

What about the “cell lines proliferation by cell growth assay” value [6] of the same compound?
The value was “markedly suppressed”.

What about the “cell lines proliferation by colony formation assay” value [7] of the same compound?
The value was “markedly suppressed”.

What about the cholesteryl ester levels [8] of the same compound?
The cholesteryl ester levels was “suppressed”.

And the free cholesterol levels [8]?
The free cholesterol levels was “suppressed”.

And the “suppression of growth of orthotopic HKCI2 xenografts” value ([9]; 80 mg/kg, p.o., both in terms of tumor size or tumor weight, P<0.01)?
Its value is > 85%.

What about the “tumor cholesteryl ester levels” value ([9]; HKCI2 xenografts) of the same compound?
Its value is “suppressed”.

What about the “tumor free cholesterol levels” value ([9]; HKCI2 xenografts) of the same compound?
The value was “suppressed”.

And the “cell lines proliferation by cell growth assay” value [10]?
The value was “markedly suppressed”.

What about the “insulin sensitivity (ITTs)” value [11] of the same compound?
Its value is “markedly improved”.

What about the liver cholesterol level [11] of the same compound?
The liver cholesterol level was “significantly decreased”.

What about the “liver free fatty acid accumulation” value [11] of the same compound?
The value was “significantly decreased”.

And the liver triglyceride [11]?
The liver triglyceride was “significantly decreased”.

What about the “serum ALT level” value [11] of the same compound?
The value was “significantly decreased”.

What about the “serum AST level” value [11] of the same compound?
Its value is “significantly decreased”.

And the serum triglyceride [11]?
The serum triglyceride was “significantly decreased”.

And the body weight gain [11, 17]?
The body weight gain was “significantly attenuated”.

And the liver weight [11, 17]?
Its liver weight is “significantly attenuated”.

What about the liver/body weight ratio [11, 17] of the same compound?
Its liver/body weight ratio is “significantly attenuated”.

And the “liver inflammation and fibrosis level (mRNA expression of inflammation and fibrosis mediators)” value ([11]; qPCR)?
The value was “reduced”.

What about the “steatohepatitis (H&E staining of livers)” value ([11]; vs PBS control) of the same compound?
The value was “reduction”.

What about the PCNA expression [12] of the same compound?
Its PCNA expression is “suppressed”.

And the SQLE expression [12]?
Its SQLE expression is “suppressed”.

What about the HFHC-induced serum cholesterol [13] of the same compound?
The HFHC-induced serum cholesterol was “attenuated”.

What about the “liver steatosis (H&E staining and free fatty acid assay)” value [13] of the same compound?
The value was “reduction”.

And the “serum ALT level” value [13]?
Its value is “attenuated”.

What about the “serum AST level” value [13] of the same compound?
Its value is “attenuated”.

And the serum triglyceride [13]?
Its serum triglyceride is “attenuated”.

What about the body weight [13, 18] of the same compound?
The body weight was “significantly decrease”.

And the liver weight [13, 18]?
The liver weight was “significantly decrease”.
